This experiment has as its system lymph node cells from B10.RQB3-DRB1*1502 positive and negative littermates (H-2A^q). The experiment in a line: T cell proliferation assay, lymph node cells of immunized B10.RQB3 mice. The conditions noted are these: for T cell response of DRB1*1502 transgene positive animals compared with negative littermates / B10.RQB3 controls: mice immunized with 200 μg HII 250-270 in CFA, in vitro HII 250-270 4, 20, 100 μg/ml, PPD 20, LPS 40, Con A 10 μg/ml, FIG. 2. Type of experiment: cell-based, mouse.

For the substance Concanavalin A [Con A], the “T cell response of DRB1*1502 transgene positive animals compared with negative littermates / B10.RQB3 controls” value is “similar”. Under “positive control of the DRB1 peptide proliferation assay”, the “mean cpm of lymph node cells challenged in vitro” value is reported as > 100,000 cpm.

Regarding lipopolysaccharide [LPS], the “T cell response of DRB1*1502 transgene positive animals compared with negative littermates / B10.RQB3 controls” value was “similar”.

Source of the values: US5965787A, “HLA-DRBI peptides with specific binding affinity for HLA-DQ molecules: prevention and treatment of rheumatoid arthritis” (Mayo Foundation for Medical Education and Research, priority 1995, dated 1999).
